*1 amine or outer side, *2 acyl side, *3 side chain or, on linkers, in order; H or OH if unused. Where a SMILES comes first, the peptide text is derived from it. Side-chain parts run from the residue outwards. [ ]: non-standard residue; d: D form. The star is where a group is joined. γGlu = O=C(O)[C@H](CCC(=O)[*:2])N[*:1]; Palmitoyl = CCCCCCCCCCCCCCCC(=O)*; hSer = N[C@@H](CCO)C(=O)O; Aib = CC(C)(N)C(=O)O
Tests used:
Assay type in all cases: cell-based
glucagon receptor = biological target: T1, glucagon receptor (Homo sapiens, UniProt P47871); test: cAMP induction, firefly luciferase-based reporter assay in HEK293 cells co-transfected with glucagon receptor; conditions: for EC50: EC50 at Glucagon Receptor
T1 construct: expressed in transfected cells; host or cells: HEK293
Source text: (§1) This example describes an exemplary method of testing the biological activity of the peptides of the present disclosures, which method involves assaying cAMP synthesis.

GLP-1 receptor = biological target: T2, GLP-1 receptor (Homo sapiens, UniProt P43220); test: cAMP induction, firefly luciferase-based reporter assay in HEK293 cells co-transfected with GLP-1 receptor; conditions: EC50 at GLP-1 Receptor
T2 construct: expressed in transfected cells; host or cells: HEK293
Source text: as §1

GIP receptor = biological target: T3, GIP receptor (Homo sapiens, UniProt P48546); test: cAMP induction, firefly luciferase-based reporter assay in HEK293 cells co-transfected with GIP receptor; conditions: EC50 at GIP Receptor
T3 construct: expressed in transfected cells; host or cells: HEK293
T3 sequence (P48546 22-466): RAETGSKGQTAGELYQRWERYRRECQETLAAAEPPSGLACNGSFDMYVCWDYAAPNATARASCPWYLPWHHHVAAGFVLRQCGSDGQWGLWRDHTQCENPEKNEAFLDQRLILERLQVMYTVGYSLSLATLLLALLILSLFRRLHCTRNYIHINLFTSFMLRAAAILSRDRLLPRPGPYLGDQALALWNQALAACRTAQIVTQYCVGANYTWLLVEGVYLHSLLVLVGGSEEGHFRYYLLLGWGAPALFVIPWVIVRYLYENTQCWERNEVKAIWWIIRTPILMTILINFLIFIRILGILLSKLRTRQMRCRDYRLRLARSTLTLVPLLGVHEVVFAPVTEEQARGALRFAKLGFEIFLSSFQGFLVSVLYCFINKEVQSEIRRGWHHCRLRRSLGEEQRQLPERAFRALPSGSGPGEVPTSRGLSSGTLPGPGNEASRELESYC
Source text: as §1

[1] = Table 2, analogs of SEQ ID NO: 18 varying at positions 16-21
[2] = Table 3, analogs of SEQ ID NO: 18 varying at position 3

T1 sequence (P47871 26-477): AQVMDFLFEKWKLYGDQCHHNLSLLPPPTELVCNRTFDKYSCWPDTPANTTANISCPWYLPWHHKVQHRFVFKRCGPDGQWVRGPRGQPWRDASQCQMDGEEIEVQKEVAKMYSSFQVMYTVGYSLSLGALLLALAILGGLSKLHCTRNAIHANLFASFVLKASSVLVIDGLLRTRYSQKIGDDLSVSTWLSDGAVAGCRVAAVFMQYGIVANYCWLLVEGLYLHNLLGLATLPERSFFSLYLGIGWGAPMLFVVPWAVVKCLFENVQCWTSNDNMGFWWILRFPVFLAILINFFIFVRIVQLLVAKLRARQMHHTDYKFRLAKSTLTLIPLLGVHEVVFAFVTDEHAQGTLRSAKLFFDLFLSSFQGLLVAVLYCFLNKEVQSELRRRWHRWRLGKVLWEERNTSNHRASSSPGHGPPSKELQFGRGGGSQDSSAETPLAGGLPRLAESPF
T2 sequence (P43220 24-463): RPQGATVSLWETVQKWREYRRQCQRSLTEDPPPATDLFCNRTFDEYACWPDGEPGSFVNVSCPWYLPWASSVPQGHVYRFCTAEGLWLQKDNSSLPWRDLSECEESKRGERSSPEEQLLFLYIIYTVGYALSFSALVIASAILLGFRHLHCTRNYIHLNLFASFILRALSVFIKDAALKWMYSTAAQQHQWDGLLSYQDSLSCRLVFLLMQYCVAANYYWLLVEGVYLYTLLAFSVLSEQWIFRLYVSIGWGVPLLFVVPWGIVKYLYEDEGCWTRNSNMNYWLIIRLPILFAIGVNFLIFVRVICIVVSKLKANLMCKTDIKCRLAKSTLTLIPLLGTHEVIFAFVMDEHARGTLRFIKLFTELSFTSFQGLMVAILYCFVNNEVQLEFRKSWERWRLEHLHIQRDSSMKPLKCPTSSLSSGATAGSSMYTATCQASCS

Structure (SMILES) | EC50 (glucagon receptor; [1]) [nM] | EC50 (GLP-1 receptor; [1]) [nM] | EC50 (GIP receptor; [1]) [nM] | EC50 (glucagon receptor; [2]) [nM] | EC50 (GLP-1 receptor; [2]) [nM] | EC50 (GIP receptor; [2]) [nM] | EC50 at Glucagon Receptor (glucagon receptor; [2])
CCCCCCCCCCCCCCCC(=O)N[C@@H](CCC(=O)NCCCC[C@H](NC(=O)[C@H](CC(=O)O)NC(=O)[C@H](CO)NC(=O)[C@@H](NC(=O)[C@H](Cc1ccccc1)NC(=O)[C@@H](NC(=O)CNC(=O)[C@H](CCC(N)=O)NC(=O)C(C)(C)NC(=O)[C@@H](N)Cc1c[nH]cn1)[C@@H](C)O)[C@@H](C)O)C(=O)N[C@@H](CO)C(=O)N[C@@H](CCCCN)C(=O)N[C@@H](Cc1ccc(O)cc1)C(=O)N[C@@H](CC(C)C)C(=O)N[C@@H](CC(=O)O)C(=O)N[C@@H](CCCCN)C(=O)N[C@@H](Cc1c[nH]cn1)C(=O)N[C@@H](C)C(=O)N[C@@H](C)C(=O)NC(C)(C)C(=O)N[C@@H](CCC(=O)O)C(=O)N[C@@H](Cc1ccccc1)C(=O)N[C@H](C(=O)N[C@@H](CCC(N)=O)C(=O)N[C@@H](Cc1c[nH]c2ccccc12)C(=O)N[C@@H](CC(C)C)C(=O)N[C@@H](CC(C)C)C(=O)N[C@@H](CC(=O)O)C(=O)NCC(=O)NCC(=O)N1CCC[C@H]1C(=O)N[C@@H](CO)C(=O)N[C@@H](CO)C(=O)NCC(=O)N[C@@H](C)C(=O)N1CCC[C@H]1C(=O)N1CCC[C@H]1C(=O)N1CCC[C@H]1C(=O)N[C@@H](CO)C(N)=O)C(C)C)C(=O)O [compound 28] (H-H[Aib]QGTFTSDK([γGlu-Palmitoyl])SKYLDKHAA[Aib]EFVQWLLDGGPSSGAPPPS-NH2; N-terminus assumed) | 0.006 | 0.002 | 0.001 | – | – | – | –
CCCCCCCCCCCCCCCC(=O)N[C@@H](CCC(=O)NCCCC[C@H](NC(=O)[C@H](CC(=O)O)NC(=O)[C@H](CO)NC(=O)[C@@H](NC(=O)[C@H](Cc1ccccc1)NC(=O)[C@@H](NC(=O)CNC(=O)[C@H](CCC(=O)O)NC(=O)C(C)(C)NC(=O)[C@@H](N)Cc1c[nH]cn1)[C@@H](C)O)[C@@H](C)O)C(=O)N[C@@H](CO)C(=O)N[C@@H](CCCCN)C(=O)N[C@@H](Cc1ccc(O)cc1)C(=O)N[C@@H](CC(C)C)C(=O)N[C@@H](CCC(=O)O)C(=O)N[C@@H](CCC(=O)O)C(=O)N[C@@H](CCCNC(=N)N)C(=O)N[C@@H](C)C(=O)N[C@@H](C)C(=O)N[C@@H](CCC(N)=O)C(=O)N[C@@H](CCC(=O)O)C(=O)N[C@@H](Cc1ccccc1)C(=O)N[C@H](C(=O)N[C@@H](CCC(N)=O)C(=O)N[C@@H](Cc1c[nH]c2ccccc12)C(=O)N[C@@H](CC(C)C)C(=O)N[C@@H](CC(C)C)C(=O)N[C@@H](CCC(=O)O)C(=O)NCC(=O)NCC(=O)N1CCC[C@H]1C(=O)N[C@@H](CO)C(=O)N[C@@H](CO)C(=O)NCC(=O)N[C@@H](C)C(=O)N1CCC[C@H]1C(=O)N1CCC[C@H]1C(=O)N1CCC[C@H]1C(=O)N[C@@H](CO)C(N)=O)C(C)C)C(=O)O [compound 29] (H-H[Aib]EGTFTSDK([γGlu-Palmitoyl])SKYLEERAAQEFVQWLLEGGPSSGAPPPS-NH2; N-terminus assumed) | – | – | – | 1.5 | 0.008 | 0.017 | –
CCCCCCCCCCCCCCCC(=O)N[C@@H](CCC(=O)NCCCC[C@H](NC(=O)[C@H](CC(=O)O)NC(=O)[C@H](CO)NC(=O)[C@@H](NC(=O)[C@H](Cc1ccccc1)NC(=O)[C@@H](NC(=O)CNC(=O)[C@@H](NC(=O)C(C)(C)NC(=O)[C@@H](N)Cc1c[nH]cn1)[C@@H](C)CC)[C@@H](C)O)[C@@H](C)O)C(=O)N[C@@H](CO)C(=O)N[C@@H](CCCCN)C(=O)N[C@@H](Cc1ccc(O)cc1)C(=O)N[C@@H](CC(C)C)C(=O)N[C@@H](CCC(=O)O)C(=O)N[C@@H](CCC(=O)O)C(=O)N[C@@H](CCCNC(=N)N)C(=O)N[C@@H](C)C(=O)N[C@@H](C)C(=O)N[C@@H](CCC(N)=O)C(=O)N[C@@H](CCC(=O)O)C(=O)N[C@@H](Cc1ccccc1)C(=O)N[C@H](C(=O)N[C@@H](CCC(N)=O)C(=O)N[C@@H](Cc1c[nH]c2ccccc12)C(=O)N[C@@H](CC(C)C)C(=O)N[C@@H](CC(C)C)C(=O)N[C@@H](CCC(=O)O)C(=O)NCC(=O)NCC(=O)N1CCC[C@H]1C(=O)N[C@@H](CO)C(=O)N[C@@H](CO)C(=O)NCC(=O)N[C@@H](C)C(=O)N1CCC[C@H]1C(=O)N1CCC[C@H]1C(=O)N1CCC[C@H]1C(=O)N[C@@H](CO)C(N)=O)C(C)C)C(=O)O [compound 30] (H-H[Aib]IGTFTSDK([γGlu-Palmitoyl])SKYLEERAAQEFVQWLLEGGPSSGAPPPS-NH2) | – | – | – | – | 0.25 | 0.423 | Not active
CCCCCCCCCCCCCCCC(=O)N[C@@H](CCC(=O)NCCCC[C@H](NC(=O)[C@H](CC(=O)O)NC(=O)[C@H](CO)NC(=O)[C@@H](NC(=O)[C@H](Cc1ccccc1)NC(=O)[C@@H](NC(=O)CNC(=O)[C@H](CCSC)NC(=O)C(C)(C)NC(=O)[C@@H](N)Cc1c[nH]cn1)[C@@H](C)O)[C@@H](C)O)C(=O)N[C@@H](CO)C(=O)N[C@@H](CCCCN)C(=O)N[C@@H](Cc1ccc(O)cc1)C(=O)N[C@@H](CC(C)C)C(=O)N[C@@H](CCC(=O)O)C(=O)N[C@@H](CCC(=O)O)C(=O)N[C@@H](CCCNC(=N)N)C(=O)N[C@@H](C)C(=O)N[C@@H](C)C(=O)N[C@@H](CCC(N)=O)C(=O)N[C@@H](CCC(=O)O)C(=O)N[C@@H](Cc1ccccc1)C(=O)N[C@H](C(=O)N[C@@H](CCC(N)=O)C(=O)N[C@@H](Cc1c[nH]c2ccccc12)C(=O)N[C@@H](CC(C)C)C(=O)N[C@@H](CC(C)C)C(=O)N[C@@H](CCC(=O)O)C(=O)NCC(=O)NCC(=O)N1CCC[C@H]1C(=O)N[C@@H](CO)C(=O)N[C@@H](CO)C(=O)NCC(=O)N[C@@H](C)C(=O)N1CCC[C@H]1C(=O)N1CCC[C@H]1C(=O)N1CCC[C@H]1C(=O)N[C@@H](CO)C(N)=O)C(C)C)C(=O)O [compound 31] (H-H[Aib]MGTFTSDK([γGlu-Palmitoyl])SKYLEERAAQEFVQWLLEGGPSSGAPPPS-NH2; N-terminus assumed) | – | – | – | 0.03 | 0.002 | 0.005 | –
CCCCCCCCCCCCCCCC(=O)N[C@@H](CCC(=O)NCCCC[C@H](NC(=O)[C@H](CC(=O)O)NC(=O)[C@H](CO)NC(=O)[C@@H](NC(=O)[C@H](Cc1ccccc1)NC(=O)[C@@H](NC(=O)CNC(=O)[C@H](CC(C)C)NC(=O)C(C)(C)NC(=O)[C@@H](N)Cc1c[nH]cn1)[C@@H](C)O)[C@@H](C)O)C(=O)N[C@@H](CO)C(=O)N[C@@H](CCCCN)C(=O)N[C@@H](Cc1ccc(O)cc1)C(=O)N[C@@H](CC(C)C)C(=O)N[C@@H](CCC(=O)O)C(=O)N[C@@H](CCC(=O)O)C(=O)N[C@@H](CCCNC(=N)N)C(=O)N[C@@H](C)C(=O)N[C@@H](C)C(=O)N[C@@H](CCC(N)=O)C(=O)N[C@@H](CCC(=O)O)C(=O)N[C@@H](Cc1ccccc1)C(=O)N[C@H](C(=O)N[C@@H](CCC(N)=O)C(=O)N[C@@H](Cc1c[nH]c2ccccc12)C(=O)N[C@@H](CC(C)C)C(=O)N[C@@H](CC(C)C)C(=O)N[C@@H](CCC(=O)O)C(=O)NCC(=O)NCC(=O)N1CCC[C@H]1C(=O)N[C@@H](CO)C(=O)N[C@@H](CO)C(=O)NCC(=O)N[C@@H](C)C(=O)N1CCC[C@H]1C(=O)N1CCC[C@H]1C(=O)N1CCC[C@H]1C(=O)N[C@@H](CO)C(N)=O)C(C)C)C(=O)O [compound 32] (H-H[Aib]LGTFTSDK([γGlu-Palmitoyl])SKYLEERAAQEFVQWLLEGGPSSGAPPPS-NH2) | – | – | – | – | 0.388 | 0.73 | Not active
CCCCCCCCCCCCCCCC(=O)N[C@@H](CCC(=O)NCCCC[C@H](NC(=O)[C@H](CC(=O)O)NC(=O)[C@H](CO)NC(=O)[C@@H](NC(=O)[C@H](Cc1ccccc1)NC(=O)[C@@H](NC(=O)CNC(=O)[C@H](CCO)NC(=O)C(C)(C)NC(=O)[C@@H](N)Cc1c[nH]cn1)[C@@H](C)O)[C@@H](C)O)C(=O)N[C@@H](CO)C(=O)N[C@@H](CCCCN)C(=O)N[C@@H](Cc1ccc(O)cc1)C(=O)N[C@@H](CC(C)C)C(=O)N[C@@H](CCC(=O)O)C(=O)N[C@@H](CCC(=O)O)C(=O)N[C@@H](CCCNC(=N)N)C(=O)N[C@@H](C)C(=O)N[C@@H](C)C(=O)N[C@@H](CCC(N)=O)C(=O)N[C@@H](CCC(=O)O)C(=O)N[C@@H](Cc1ccccc1)C(=O)N[C@H](C(=O)N[C@@H](CCC(N)=O)C(=O)N[C@@H](Cc1c[nH]c2ccccc12)C(=O)N[C@@H](CC(C)C)C(=O)N[C@@H](CC(C)C)C(=O)N[C@@H](CCC(=O)O)C(=O)NCC(=O)NCC(=O)N1CCC[C@H]1C(=O)N[C@@H](CO)C(=O)N[C@@H](CO)C(=O)NCC(=O)N[C@@H](C)C(=O)N1CCC[C@H]1C(=O)N1CCC[C@H]1C(=O)N1CCC[C@H]1C(=O)N[C@@H](CO)C(N)=O)C(C)C)C(=O)O [compound 33] (H-H[Aib][hSer]GTFTSDK([γGlu-Palmitoyl])SKYLEERAAQEFVQWLLEGGPSSGAPPPS-NH2) | – | – | – | 0.015 | 0.002 | 0.004 | –
